Source: publication PMC5041982, “Small-molecule inhibition of STAT3 in radioresistant head and neck squamous cell carcinoma” (Oncotarget, 2016)
Like-named read-outs stand apart in the source and are kept apart here.

Legend:
MB-MDA-468 = MB-MDA-468 in vitro; read-out: Apoptosis EC50; cited from earlier work
pSTAT1 (Tyr-701) [1] = biological target: T1, pSTAT1 (Tyr-701) (Homo sapiens, UniProt P42224); assay: Phosphoflow, IFN-γ-induced pSTAT1 in Kasumi-1 cells; assay type: cell-based; conditions: Figure 2C, Kasumi-1; read-out: Phosphoflow pSTAT1 (Tyr-701) IC50, representative experiment
T1 construct: endogenous in cells; host or cells: Kasumi-1
T1 sequence (P42224 1-750): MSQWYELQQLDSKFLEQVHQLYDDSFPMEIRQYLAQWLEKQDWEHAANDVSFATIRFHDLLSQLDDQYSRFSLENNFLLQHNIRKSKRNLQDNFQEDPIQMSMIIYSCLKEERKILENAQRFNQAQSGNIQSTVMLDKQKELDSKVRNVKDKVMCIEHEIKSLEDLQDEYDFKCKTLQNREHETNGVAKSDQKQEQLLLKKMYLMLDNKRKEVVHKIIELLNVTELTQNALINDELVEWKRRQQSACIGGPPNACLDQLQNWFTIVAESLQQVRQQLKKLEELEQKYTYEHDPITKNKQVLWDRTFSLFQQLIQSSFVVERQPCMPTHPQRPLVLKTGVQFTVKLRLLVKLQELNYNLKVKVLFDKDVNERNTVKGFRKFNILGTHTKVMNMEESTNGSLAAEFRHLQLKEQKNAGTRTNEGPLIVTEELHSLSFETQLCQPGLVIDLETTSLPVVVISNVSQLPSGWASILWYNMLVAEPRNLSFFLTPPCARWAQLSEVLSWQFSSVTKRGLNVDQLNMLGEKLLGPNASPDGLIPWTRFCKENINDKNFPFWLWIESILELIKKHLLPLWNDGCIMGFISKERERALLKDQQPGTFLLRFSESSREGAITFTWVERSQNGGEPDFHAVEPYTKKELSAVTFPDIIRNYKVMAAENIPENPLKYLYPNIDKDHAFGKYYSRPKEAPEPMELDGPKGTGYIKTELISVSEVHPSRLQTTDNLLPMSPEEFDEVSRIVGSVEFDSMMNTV
Protocol: The equilibrium binding levels obtained ± compound were normalized (resonance obtained in the presence of compound ÷ the resonance obtained in the absence of compound × 100) and plotted against Log [nM] […] B. Inhibition of ligand-stimulated STAT phosphorylation, measured by phosphoflow. Serum-starved (1 hour) Kasumi-1 cells, pre-incubated with compound/DMSO (1 hour), were treated with G-CSF (10 ng/ml, 15 min, left two panels) or IFN-γ (10ng/ml, 15 min, right panel). Cells were permeabilized and stained with Alexa647-pSTAT3, and PE-pSTAT1 antibodies and analyzed on BD LSR2. FCS files were uploaded to Cytobank for pSTAT3 and pSTAT1 quantitation. Histograms depicting pSTAT3 and pSTAT1 levels are shown. C. Mean fluorescence (pSTAT3/1) levels were plotted as function the Log [M] compound, and IC50 calculated using GraphPad. […] D. Inhibition of ligand-stimulated STAT phosphorylation, measured by Luminex. Serum-starved (1 hour) Kasumi-1 cells, pre-incubated with compound/DMSO (0/0.1/0.3/1/3/10/100 μM, 1 hour), were treated with G-CSF (10 ng/ml, 15′). Total protein extracts of cells were assayed for pSTAT3, pSTAT1, and GAPDH levels by Luminex. GAPDH-normalized pSTAT3 or pSTAT1 values were divided by this ratio for untreated cells and expressed in percentage. These values were plotted as a function of Log [M] compound, and IC50 values calculated using GraphPad.
(§1) Phosphoflow analysis was done as described in Xu et al. Briefly, Kasumi-1 cells, were serum-starved, pre-treated with compound or DMSO (1 hour, RT) and then stimulated with 20 μl of GCSF (10 ng/ml) for 15 minutes at 37°C. The cells were then permeabilized and stained with Alexa647-pSTAT3, Alexa488-pSTAT5 and PE-pSTAT1 antibodies and analyzed using the BD LSR2. FCS files were exported and uploaded to Cytobank for determination of phosphoproteins as earlier. Gating was done on live, single cells and then gates selected for positive ligand-activated pSTAT3 and pSTAT1. IC50 values were calculated using the GraphPad Prism.

[2] = Maximum tolerated dose in mice; conditions: mouse, in vivo
pSTAT3 [3] = biological target: pSTAT3 (Homo sapiens, UniProt P40763); assay: pSTAT3 levels in UM-SCC-17B tumor xenografts (immunoblot); conditions: UM-SCC-17B xenografts, C188 50 mg/kg/day
Sequence of pSTAT3 (Homo sapiens, UniProt P40763) (P40763 whole entry): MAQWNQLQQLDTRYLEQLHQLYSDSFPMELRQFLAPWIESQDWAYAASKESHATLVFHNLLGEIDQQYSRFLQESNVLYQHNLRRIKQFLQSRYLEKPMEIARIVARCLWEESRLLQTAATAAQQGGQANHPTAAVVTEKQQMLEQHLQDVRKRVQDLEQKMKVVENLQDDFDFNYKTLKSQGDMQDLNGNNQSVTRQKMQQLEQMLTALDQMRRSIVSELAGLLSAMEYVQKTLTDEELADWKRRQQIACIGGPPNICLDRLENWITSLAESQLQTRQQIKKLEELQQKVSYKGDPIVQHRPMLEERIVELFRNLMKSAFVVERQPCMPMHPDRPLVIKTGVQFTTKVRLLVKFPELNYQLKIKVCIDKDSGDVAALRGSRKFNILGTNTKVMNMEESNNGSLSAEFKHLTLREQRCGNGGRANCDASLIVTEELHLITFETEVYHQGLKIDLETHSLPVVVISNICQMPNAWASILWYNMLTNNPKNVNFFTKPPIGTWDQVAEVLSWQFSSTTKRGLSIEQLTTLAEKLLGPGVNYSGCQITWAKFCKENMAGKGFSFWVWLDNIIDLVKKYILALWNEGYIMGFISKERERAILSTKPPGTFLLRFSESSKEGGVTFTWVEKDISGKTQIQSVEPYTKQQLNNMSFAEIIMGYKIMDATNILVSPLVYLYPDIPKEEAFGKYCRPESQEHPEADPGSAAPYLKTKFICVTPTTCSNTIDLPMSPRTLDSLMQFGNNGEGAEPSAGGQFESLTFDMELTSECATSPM
Protocol: Tumor tissue was minced, homogenized and first), 50% PEG-400 (added second), 40% Saline (added proteins extracted using high-salt buffer, as described last) then vortexed and sonicated at concentration (10 mg/
C57BL/6 mice were provided in membrane (Millipore, Waltham, MA) and immunoblotted. triplicate, a single dose by body weight via either intra-Membranes were probed with antibody against peritoneal (IP) or oral (PO) route at 10 mg/kg at a volume STAT1 pY701 or STAT3 pY705 total STAT1 or STAT3 of 10 mL/kg and plasma samples collected as shown (Transduction labs, Lexington, KY) and β–actin (Abcam, in the study table below. At the indicated times, 3 mice Cambridge, MA). Membranes were stripped between per time point were euthanized per dose route and then

UM-SCC-17B cells = assay: Anchorage dependent growth (MTT); assay type: cell-based; conditions: Homo sapiens, 48 hrs
Protocol: GAPDH-normalized pSTAT3 or pSTAT1 values were divided by that for untreated cells and expressed in percentage. These values were plotted as a function of Log [M] compound, and IC50 values calculated using GraphPad. […] Viable cells quantitated using MTT. Relative % viability was measured by (viability after any treatment ÷ viability of untreated cells × 100) and plotted as a function of Log [M] […] C. […] Representative curves are shown.
Cells were cultured in triplicates in complete DMEM ± drug, in ultra-low attachment 96 well plates for 72 hrs or cell-culture treated plates for 48 hrs and viable cells were quantitated using MTT. Optical density (OD) was measured at 590 nm using a 96-well multi-scanner (EL-800 universal microplate reader, BioTek Inc, VT, USA). Relative % viability (viability after any treatment ÷ viability of untreated cells × 100) was plotted along Y-axis. At least 2 replicates experiments were performed and were used for IC50 calculation using GraphPad software.

UM-SCC-17B xenografts = assay: UM-SCC-17B tumor xenograft growth in nude mice; assay type: in vivo; conditions: IP 5 times a week, 50 mg/kg/day
Protocol: (§2) Tumor volumes were measured twice weekly.
as §2

pSTAT5 = assay: Phosphoflow, G-CSF-induced pSTAT5 in Kasumi-1 cells; assay type: cell-based; conditions: mean, n ≥ 2, read-out: Ligand Induced Phosphorylation (Phosphoflow) pSTAT5 (G-CSF) IC50
Protocol: as §1

pSTAT1 (Tyr-701) [4] = biological target: T1, pSTAT1 (Tyr-701); assay: Luminex bead-based assay, G-CSF-induced pSTAT1 in Kasumi-1 cells; assay type: cell-based; conditions: Figure 2D, Kasumi-1, G-CSF; read-out: Luminex pSTAT1 (Tyr-701) IC50, representative experiment
Protocol: The equilibrium binding levels obtained ± compound were normalized (resonance obtained in the presence of compound ÷ the resonance obtained in the absence of compound × 100) and plotted against Log [nM] […] B. Inhibition of ligand-stimulated STAT phosphorylation, measured by phosphoflow. Serum-starved (1 hour) Kasumi-1 cells, pre-incubated with compound/DMSO (1 hour), were treated with G-CSF (10 ng/ml, 15 min, left two panels) or IFN-γ (10ng/ml, 15 min, right panel). Cells were permeabilized and stained with Alexa647-pSTAT3, and PE-pSTAT1 antibodies and analyzed on BD LSR2. FCS files were uploaded to Cytobank for pSTAT3 and pSTAT1 quantitation. Histograms depicting pSTAT3 and pSTAT1 levels are shown. C. Mean fluorescence (pSTAT3/1) levels were plotted as function the Log [M] compound, and IC50 calculated using GraphPad. […] D. Inhibition of ligand-stimulated STAT phosphorylation, measured by Luminex. Serum-starved (1 hour) Kasumi-1 cells, pre-incubated with compound/DMSO (0/0.1/0.3/1/3/10/100 μM, 1 hour), were treated with G-CSF (10 ng/ml, 15′). Total protein extracts of cells were assayed for pSTAT3, pSTAT1, and GAPDH levels by Luminex. […] These values were plotted as a function of Log [M] compound, and IC50 values calculated using GraphPad. […]
for analysis as described below. were determined by plotting % maximum response as a 3-D pharmacophore generation function of log concentration of compound and fitting the Each molecular chemical feature, including experimental points to a competitive binding model using hydrogen bond donor, hydrogen bond acceptor, positive a four parameter logistic equation: R = Rhigh − (Rhigh − R low)/ (1 + conc/A1)^A2, where R = percent response at and negative ionizable group, and hydrophobic region, inhibitor concentration, R = percent response with no was generated using the LigandScout application compound, R= percent response at highest compound high framework and projected into 3-D space. concentration, A2 = fitting parameter (slope) and A1 = low Feature-pairing IC50 (BIAevaluation Software version 4.1). […]

tumor cells = conditions: read-out: IC50 killing of tumor cells; cited from earlier work
STAT3 = STAT3 (Homo sapiens, UniProt P40763); design: method as in PMID 24308725; conditions: read-out: IC50 inhibition of STAT3 in a luciferase reporter assay; cited from earlier work
Sequence of STAT3 (P40763 whole entry, species assumed): as the sequence (P40763 whole entry) above

pSTAT3 [5] = conditions: read-out: IC50 inhibition of cytokine-induced pSTAT3 levels; cited from earlier work

SMILES: O=C(O)CSc1cc(NS(=O)(=O)c2ccc(C(=O)O)cc2)c2ccccc2c1O [Compound C188]
- EC50 (MB-MDA-468): 0.7 µM
- IC50 (pSTAT1 (Tyr-701) [1]): 23.4 µM
- MTD at 14 days [2]: 100 mg/kg/day
- Levels of pSTAT3 in tumors (pSTAT3 [3]): not reduced significantly
- IC50 (UM-SCC-17B cells; mean, read-out: Anchorage dependent growth (MTT) IC50): 6.3 ± 0.8 µM
- IC50 (UM-SCC-17B cells; Figure 4B, read-out: Anchorage Dependent growth IC50, representative experiment): 5.7 µM
- Growth of established UM-SCC-17B xenograft tumors (UM-SCC-17B xenografts): continued to grow
- IC50 (pSTAT5): 40 µM
- IC50 (pSTAT1 (Tyr-701) [4]): 21.9 µM

SMILES: NS(=O)(=O)c1cccc2c1C(=O)c1cccc(O)c1C2=O [LLL12]
- IC50 (tumor cells): ~5 µM

SMILES: C[C@@H]1CC(=O)c2c(ccc3c2C(=O)c2cccc(O)c2C3=O)C1 [STA-21]
- IC50 (STAT3): 12.2 to 18.7 µM

SMILES: COC(=O)[C@H](Cc1cn(C)cn1)NC(=O)[C@@H](NC(=O)Nc1cc(C(F)(F)F)cc(C(F)(F)F)c1)C(C)C [XZH-5]
- IC50 (pSTAT3 [5]): 20 to 30 µM
